Test results as given in publication PMC5428418, “Differential expression of chemosensory-protein genes in midguts in response to diet of Spodoptera litura” (Scientific Reports, 2017).
Like-named read-outs stand apart in the source and are kept apart here.

How the values were obtained:
[1] = biological target: recombinant SlitCSP8 (Spodoptera litura, UniProt A0A0P0EUM0); assay: Fluorescence competitive binding assay (1-NPN displacement), SlitCSP8; conditions: for binding affinity to SlitCSP8 (in words): competitive binding with 1-NPN; for IC50 SlitCSP8 / IC50: competitor's concentration halving the initial fluorescence, protein 2 μM, ligand 0 to 20 μM, 1-NPN probe; for Kd SlitCSP8 / Kd: dissociation constant of the competitor calculated from IC50: KD = [IC50]/(1 + [1-NPN]/K1-NPN); for IC50: read-out: IC50 SlitCSP8; for Kd: read-out: Kd SlitCSP8
Description: The fluorescence spectra were recorded on an F-4500 FL Fluorescence Spectrophotometer (HITACHI) in a 1 cm light path quartz cuvette at 23 °C. The slit width used for excitation and emission was 5 nm. The compounds used to investigate the binding abilities of SlitCSPs were purchased from Sigma-Aldrich with the highest purity and stored as specified instruction by the manufacturer. […] The fluorescent probe N-phenyl-1-naphthylamine (1 − NPN) and all ligands used in competition experiments were dissolved in HPLC purity grade methanol. […] And then, 2 μM of protein was added and titrated with aliquots of 1 mM 1 − NPN to final concentrations of 2 to 20 μM. […] All values reported were obtained from three independent measurements. The corresponding to the maximum fluorescence emission was plotted against the ligand concentrations for the determination of the binding constants. The curves were linearized by Scatchard plots.

[2] = biological target: recombinant SlitCSP11 (Spodoptera litura, UniProt A0A0P0EM27); format: binding; conditions: for binding affinity to SlitCSP11 (in words): competitive binding with 1-NPN; for IC50 SlitCSP11: competitor's concentration halving the initial fluorescence, protein 2 μM, ligand 0 to 20 μM, 1-NPN probe; for Kd SlitCSP11: dissociation constant of the competitor calculated from IC50: KD = [IC50]/(1 + [1-NPN]/K1-NPN)
Excerpt: (§1) The curves were linearized by Scatchard plots.

[3] = biological target: recombinant SlitCSP3 (Spodoptera litura, UniProt A0A9J7EMU8); format: binding; conditions: for binding affinity to SlitCSP3 (in words): competitive binding with 1-NPN
Excerpt: as §1

[4] = competitor's concentration halving the initial fluorescence, protein 2 μM, ligand 0 to 20 μM, 1-NPN probe
[5] = dissociation constant of the competitor calculated from IC50: KD = [IC50]/(1 + [1-NPN]/K1-NPN)

recombinant SlitCSP3, sequence (A0A9J7EMU8 entry or part of it): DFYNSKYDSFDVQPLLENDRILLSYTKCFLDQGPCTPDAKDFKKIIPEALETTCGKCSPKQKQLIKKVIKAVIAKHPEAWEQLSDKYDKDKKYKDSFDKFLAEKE
recombinant SlitCSP11, sequence (A0A0P0EM27 entry or part of it): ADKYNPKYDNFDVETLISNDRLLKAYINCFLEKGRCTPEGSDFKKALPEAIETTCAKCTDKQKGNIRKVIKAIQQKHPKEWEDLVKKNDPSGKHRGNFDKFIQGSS
recombinant SlitCSP8, sequence (A0A0P0EUM0 18-128 with tags or gaps limits assumed): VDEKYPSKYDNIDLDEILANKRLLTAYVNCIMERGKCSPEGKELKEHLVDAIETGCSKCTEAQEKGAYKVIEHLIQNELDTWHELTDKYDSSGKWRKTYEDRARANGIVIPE

Row | Compound | binding affinity to SlitCSP8 (in words) [1] | IC50 SlitCSP8 [1] | Kd SlitCSP8 [1] | IC50 SlitCSP11 [2] | Kd SlitCSP11 [2] | IC50 SlitCSP3 [3, 4] | Kd SlitCSP3 [3, 5] | further results
1 | CCCCCCCCCC#N [Decanenitrile] | poor affinities | u.d | u.d | u.d | u.d | u.d | u.d | binding affinity to SlitCSP11 (in words) [2]: poor affinities; binding affinity to SlitCSP3 (in words) [3]: poor affinities
2 | CCC/C=C/C(=O)O [trans-2-Hexenoic acid] | – | – | – | u.d | u.d | – | – | –
3 | C=Cc1ccccc1 [Styrene] | – | u.d | u.d | – | – | u.d | u.d | –
4 | c1ccncc1 [Pyridine] | – | u.d | u.d | – | – | – | – | IC50 SlitCSP3 [3]: u.d; Kd SlitCSP3 [3]: u.d
5 | OCc1ccccc1 [Benzyl alcohol] | at low concentrations | – | – | – | – | u.d | u.d | –
6 | CCCCCCCCCCCCCCCC(=O)O [Hexadecanoic acid] | – | u.d | u.d | – | – | u.d | u.d | –
7 | CCCCCC=O [Hexanal] | – | – | – | u.d | u.d | u.d | – | binding affinity to SlitCSP11 (in words) [2]: poor affinities; Kd SlitCSP3 [3]: u.d; binding affinity to SlitCSP3 (in words) [3]: poor affinities
8 | S=C=NCCc1ccccc1 [Phenethyl isothiocyanate] | – | – | – | – | – | – | – | IC50 [1]: 4.34 µM; Kd [1]: 6.17 µM
9 | O=Cc1ccc(CO)o1 [5-(Hydroxymethyl)furfural] | – | u.d | u.d | u.d | u.d | – | – | –
10 | CCCCN=C=S [Butyl isothiocyanate] | – | u.d | u.d | – | – | u.d | u.d | –
11 | O=Cc1ccco1 [Furan-2-carboxaldehyde] | – | u.d | – | – | – | u.d | u.d | –
12 | CC/C=C\CCO [cis-3-Hexen-1-ol] | at low concentrations | – | – | u.d | u.d | u.d | u.d | –
13 | N#Cc1ccccc1 [Benzonitrile] | poor affinities | u.d | u.d | u.d | u.d | u.d | u.d | binding affinity to SlitCSP11 (in words) [2]: poor affinities; binding affinity to SlitCSP3 (in words) [3]: poor affinities
14 | NC(=O)c1ccncc1 [Isonicotinamide] | at low concentrations | – | – | – | – | – | – | –
15 | CC1CCC(C(C)C)C(O)C1 (stereo not shown) [Menthol] | – | ud | u.d | – | – | – | – | –
16 | O=Cc1ccccc1 [Benzaldehyde] | – | – | – | – | – | – | – | IC50 [1]: 5.26 µM; Kd [1]: 7.47 µM
17 | CCc1ccco1 [2-Ethylfuran] | poor affinities | u.d | u.d | u.d | u.d | u.d | u.d | binding affinity to SlitCSP11 (in words) [2]: poor affinities; binding affinity to SlitCSP3 (in words) [3]: poor affinities
